For 28 compounds, Ki results are on record in patent US20200071326A1, “TAM KINASE INHIBITORS” (Syros Pharmaceuticals, Inc., priority 2017, published 2020).

Structures can show the parent of a compound that is named as a salt.

The target in assay [1] is T1, MERTK (Homo sapiens, UniProt Q12866).
T1 sequence (Q12866 21-999): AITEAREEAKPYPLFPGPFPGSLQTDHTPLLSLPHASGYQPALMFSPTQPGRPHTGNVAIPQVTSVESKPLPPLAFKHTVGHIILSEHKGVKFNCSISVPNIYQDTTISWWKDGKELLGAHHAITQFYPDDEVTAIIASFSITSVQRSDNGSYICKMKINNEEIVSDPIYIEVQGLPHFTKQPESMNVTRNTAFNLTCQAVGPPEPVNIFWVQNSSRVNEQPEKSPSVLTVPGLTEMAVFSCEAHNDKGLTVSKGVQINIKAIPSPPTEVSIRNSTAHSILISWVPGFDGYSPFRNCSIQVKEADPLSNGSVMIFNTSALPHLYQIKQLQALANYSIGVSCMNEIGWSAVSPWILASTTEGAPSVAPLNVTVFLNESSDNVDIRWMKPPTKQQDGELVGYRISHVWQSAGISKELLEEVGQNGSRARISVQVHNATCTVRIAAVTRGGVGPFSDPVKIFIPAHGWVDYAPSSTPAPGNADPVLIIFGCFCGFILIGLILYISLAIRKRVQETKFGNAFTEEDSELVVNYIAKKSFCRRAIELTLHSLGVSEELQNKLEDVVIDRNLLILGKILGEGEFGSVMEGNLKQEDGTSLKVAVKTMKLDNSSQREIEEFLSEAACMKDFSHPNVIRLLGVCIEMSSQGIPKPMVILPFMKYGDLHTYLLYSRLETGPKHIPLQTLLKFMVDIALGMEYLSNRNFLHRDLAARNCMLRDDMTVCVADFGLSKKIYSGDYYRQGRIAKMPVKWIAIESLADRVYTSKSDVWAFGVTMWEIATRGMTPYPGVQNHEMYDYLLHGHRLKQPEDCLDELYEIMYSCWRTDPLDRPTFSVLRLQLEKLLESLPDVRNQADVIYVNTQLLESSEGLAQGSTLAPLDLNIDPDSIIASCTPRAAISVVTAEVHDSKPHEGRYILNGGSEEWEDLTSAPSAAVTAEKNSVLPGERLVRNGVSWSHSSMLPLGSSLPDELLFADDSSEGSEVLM
The experiment in a line: IMAP fluorescence polarization kinase assay, MERTK. In kind it is biochemical. Conditions: ATP 2.69 μM, enzyme 1.5 nM, 240 minutes, read-out: MERTK inhibitory constant (Ki). As for the experimental part: (§1) Activities of compounds against each of TYRO3, AXL, and MERTK as well as against FLT3, were determined using an immobilized metal ion affinity-based fluorescence polarization (“IMAP”) assay. A fluorescently-labeled substrate peptide was phosphorylated in the kinase reaction, after which a binding solution containing large trivalent metal-based nanoparticles was added and the phosphorylated substrate binds to these beads. This reduces the rotational speed of the substrate which is then detected using fluorescence polarization as a read-out.
(§2) The substrates used for each enzyme are as follows: AXL: 5F1-KKKKEEIYFFFG-NH2(SEQ ID NO:1); FLT3: 5F1-KKKKEEIYFFF-NH2 (SEQ ID NO:2); MERTK: 5F1-EFPIYDFLPAKKK-NH2 (SEQ ID NO:3); and TYRO3: 5F1-EFPIYDFLPAKKK-NH2 (SEQ ID NO:4).
(§3) This assay was performed in a 384-well, polystyrene microplate in a final volume of 8 μl. Substrate (final concentration=400 nM), ATP (final concentrations=24.7μM for AXL; 2.74 μM for FLT3; 2.69 μM for MERTK; and 54.0 μM for TYRO3), compounds and enzyme (final concentrations=2.5 nM for AXL, FLT3 and TYRO3; 1.5 nM for MERTK) were pipetted in this order into the appropriate reaction buffer (AXL: 50 mM HEPES, pH 8.0, 1 mM DTT, 10 mM MgCl2, 0.01% BRU35, 0.01% Triton X-100; FLT3: 50 mM HEPES, pH 8.0, 1 mM DTT, 10 mM MgCl2, 0.01% Triton X-100, 0.01% NP40; MERTK/TYRO3: 50 mM HEPES, pH 8.0, 1 mM DTT, 10 mM MgCl2, 0.01% Triton X-100) and incubated at room temperature for varying times (AXL, FLT3 and MERTK: 240 minutes; TYRO3: 60 minutes). IMAP binding solution was then dispensed, the plate incubated for 60 minutes at room temperature and the fluorescence polarization measured. Data were analyzed using XLfit.

Assay [2] concerns the target T2, TYRO3 (Homo sapiens, UniProt Q06418).
T2 sequence (Q06418 41-890): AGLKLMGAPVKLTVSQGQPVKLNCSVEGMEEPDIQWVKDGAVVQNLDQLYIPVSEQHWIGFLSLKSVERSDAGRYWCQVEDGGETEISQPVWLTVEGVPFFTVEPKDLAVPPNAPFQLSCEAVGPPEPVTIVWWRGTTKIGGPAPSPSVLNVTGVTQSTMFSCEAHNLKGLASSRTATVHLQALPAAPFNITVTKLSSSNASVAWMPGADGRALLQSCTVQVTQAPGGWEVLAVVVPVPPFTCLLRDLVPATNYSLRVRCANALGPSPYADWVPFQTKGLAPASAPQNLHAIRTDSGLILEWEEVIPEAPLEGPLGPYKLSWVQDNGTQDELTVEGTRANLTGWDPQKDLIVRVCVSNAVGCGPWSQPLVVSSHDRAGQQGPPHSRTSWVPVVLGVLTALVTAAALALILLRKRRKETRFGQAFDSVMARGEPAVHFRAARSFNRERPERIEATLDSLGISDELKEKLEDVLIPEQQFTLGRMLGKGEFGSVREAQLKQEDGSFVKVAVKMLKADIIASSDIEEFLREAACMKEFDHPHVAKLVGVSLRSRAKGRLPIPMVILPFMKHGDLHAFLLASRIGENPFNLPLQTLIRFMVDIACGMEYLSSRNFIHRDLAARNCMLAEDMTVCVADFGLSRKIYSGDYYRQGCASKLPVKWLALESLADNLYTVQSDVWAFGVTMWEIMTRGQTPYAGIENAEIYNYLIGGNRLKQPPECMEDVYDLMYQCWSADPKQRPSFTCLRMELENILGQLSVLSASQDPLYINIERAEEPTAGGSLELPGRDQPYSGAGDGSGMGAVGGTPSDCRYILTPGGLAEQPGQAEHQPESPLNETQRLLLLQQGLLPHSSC
The experiment in a line: IMAP fluorescence polarization kinase assay, TYRO3. The settings on record: ATP 54.0 μM, enzyme 2.5 nM, 60 minutes, read-out: TYRO3 inhibitory constant (Ki). The assay is classed as biochemical. Here is the method: as §1, §2, §3

As for `CCCc1cc2c(N[C@H]3CC[C@H](O)CC3)c(-c3ccc(CN4CCCC4)cn3)cnc2[nH]1` [Compound 125], the inhibition constant (Ki) in assay [1] and in assay [2] was under 100 nM each time.

On to `N[C@H]1CC[C@H](Nc2c(C(=O)NCc3ccc(-n4ccnc4)cc3)cnc3[nH]c(C4CCCC4)cc23)CC1` [Compound 126], for which the Ki in assay [1] and in assay [2] was under 100 nM each time.

With `CCCc1cc2c(N[C@H]3CC[C@H](N)CC3)c(-c3ccc(C)nn3)cnc2[nH]1` [Compound 127], the Ki in assay [1] and in assay [2] was under 100 nM throughout.

Regarding `C#Cc1cc2c(N[C@H]3CC[C@H](N)CC3)c(C(=O)Nc3ccc(F)cc3)cnc2[nH]1` [Compound 128, [4-1(4-aminocyclohexyl)amino]-2-ethynyl-N-(4-fluorophenyl)-1H-pyrrolo[2,3-b]pyridine-5-carboxamide], the inhibitory constant (Ki) in assay [1] and in assay [2] was 100 to 1000 nM throughout.

Consider `CC(C)c1cc2c(N[C@H]3CC[C@H](N)CC3)c(C(=O)NCc3ccc(-n4ccnc4)cc3)cnc2[nH]1` [Compound 129], for which the Ki in assay [1] and in assay [2] was under 100 nM each time.

In the case of `CCCc1cc2c(N[C@H]3CC[C@H](N)CC3)c(-c3ccc(COC(C)C)cn3)cnc2[nH]1` [Compound 130], the Ki in assay [1] and in assay [2] was under 100 nM each time.

With `CCCc1cc2c(N[C@H]3CC[C@H](N)CC3)c(-c3cc(N)ccn3)cnc2[nH]1` [Compound 131], the inhibitory constant (Ki) was 100 to 1000 nM in assay [1] and under 100 nM in assay [2].

For `CCc1cc2c(N[C@H]3CC[C@H](N)CC3)c(C(=O)NC3CCN(c4ncccn4)CC3)cnc2[nH]1` [Compound 132], the inhibitory constant (Ki) in assay [1] and in assay [2] was under 100 nM each time.

For `CCCCCc1cc2c(N[C@H]3CC[C@H](N)CC3)c(C(=O)NCc3ccc(-n4ccnc4)cc3)cnc2[nH]1` [Compound 133], the Ki in assay [1] and in assay [2] was under 100 nM in each case.

Consider `CCC(C)c1cc2c(N[C@H]3CC[C@H](N)CC3)c(C(=O)Nc3ccc(F)cc3)cnc2[nH]1` (some centres unmarked) [Compound 134], for which the Ki in assay [1] and in assay [2] was under 100 nM throughout.

`N[C@H]1CC[C@H](Nc2c(C(=O)Nc3ccc(F)cc3)cnc3[nH]c(C(F)(F)F)cc23)CC1` [Compound 135, 4-(((1r,4r)-4-aminocyclohexyl)amino)-N-(4-fluorophenyl)-2-(trifluoromethyl)-1H-pyrrolo[2,3-b]pyridine-5-carboxamide hydrochloride]: the inhibitory constant (Ki) in assay [1] and in assay [2] was under 100 nM throughout.

Take `CCc1cc2c(N[C@H]3CC[C@H](N)CC3)c(C(=O)Nc3ccc(F)cc3)cnc2[nH]1` [Compound 136]: the Ki in assay [1] and in assay [2] was under 100 nM each time.

As for `CCCC(O)c1cc2c(N[C@H]3CC[C@H](N)CC3)c(Br)cnc2[nH]1` (some centres unmarked) [Compound 137], the Ki in assay [1] and in assay [2] was 100 to 1000 nM each time.

Turning to `N[C@H]1CC[C@H](Nc2c(C(=O)Nc3ccc(F)cc3)cnc3[nH]c(C4CCC4)cc23)CC1` [Compound 138, 4-(((1r,4r)-4-aminocyclohexyl)amino)-2-cyclobutyl-N-(4-fluorophenyl)-1H-pyrrolo[2,3-b]pyridine-5-carboxamide hydrochloride], the Ki in assay [1] and in assay [2] was under 100 nM each time.

Consider `CCCc1cc2c(N[C@H]3CC[C@H](N)CC3)c(C(=O)NC)cnc2[nH]1` [Compound 139], for which the inhibition constant Ki in assay [1] and in assay [2] was under 100 nM in each case.

In the case of `CCCc1cc2c(N[C@H]3CC[C@H](N)CC3)c(C(=O)OC)cnc2[nH]1` [Compound 140], the Ki in assay [1] and in assay [2] was under 100 nM each time.

Turning to `CCCc1cc2c(N[C@H]3CC[C@H](N)CC3)c(C(=O)NC3CCN(c4ncccn4)CC3)cnc2[nH]1` [Compound 141], the inhibition constant Ki in assay [1] and in assay [2] was under 100 nM each time.

On to `CCCc1cc2c(N[C@H]3CC[C@H](N)CC3)c(Br)cnc2[nH]1` [Compound 142], for which the Ki in assay [1] and in assay [2] was under 100 nM each time.

`CC(O)c1cc2c(N[C@H]3CC[C@H](O)CC3)c(-c3ccc(CN4CCOCC4)cn3)cnc2[nH]1` (some centres unmarked) [Compound 143]: the inhibition constant Ki in assay [1] and in assay [2] was under 100 nM throughout.

Consider `CCc1cc2c(N[C@H]3CC[C@H](O)CC3)c(-c3ccc(CN4CCOCC4)cn3)cnc2[nH]1` [Compound 144], for which the Ki in assay [1] and in assay [2] was under 100 nM each time.

Regarding `COC(C)c1cc2c(N[C@H]3CC[C@H](N)CC3)c(C(=O)Nc3ccc(F)cc3)cnc2[nH]1` (some centres unmarked) [Compound 145], the inhibition constant (Ki) in assay [1] and in assay [2] was 100 to 1000 nM throughout.

As to `CCC(OC)c1cc2c(N[C@H]3CC[C@H](N)CC3)c(C(=O)Nc3ccc(F)cc3)cnc2[nH]1` (some centres unmarked) [Compound 146], the values for the Ki in assay [1] and in assay [2] were 100 to 1000 nM and under 100 nM, respectively.

For the compound `CCC(CC)c1cc2c(N[C@H]3CC[C@H](N)CC3)c(C(=O)Nc3ccc(F)cc3)cnc2[nH]1` [Compound 147], the values for the inhibition constant (Ki) in assay [1] and in assay [2] were 100 to 1000 nM and under 100 nM, respectively.

For `CC(O)c1cc2c(N[C@H]3CC[C@H](N)CC3)c(C(=O)Nc3ccc(F)cc3)cnc2[nH]1` (some centres unmarked) [Compound 148], the Ki in assay [1] and in assay [2] was 100 to 1000 nM in each case.

`CCC[C@H](C)c1cc2c(N[C@H]3CC[C@H](N)CC3)c(C(=O)Nc3ccc(F)cc3)cnc2[nH]1` [Compound 149]: the results for the inhibition constant Ki in assay [1] and in assay [2] were 100 to 1000 nM and under 100 nM, respectively.

`CCC[C@@H](C)c1cc2c(N[C@H]3CC[C@H](N)CC3)c(C(=O)Nc3ccc(F)cc3)cnc2[nH]1` [Compound 150]: the inhibition constant Ki in assay [1] and in assay [2] was under 100 nM throughout.

As for `CCOC(C)c1cc2c(N[C@H]3CC[C@H](N)CC3)c(C(=O)Nc3ccc(F)cc3)cnc2[nH]1` (some centres unmarked) [Compound 152], the inhibition constant Ki in assay [1] and in assay [2] was 100 to 1000 nM throughout.

For `CCCC(OC)c1cc2c(N[C@H]3CC[C@H](N)CC3)c(C(=O)Nc3ccc(F)cc3)cnc2[nH]1` (some centres unmarked) [Compound 153], the Ki in assay [1] is 1000 to 10000 nM; in assay [2] it was under 100 nM.
